The results in this text go back to ChEMBL document CHEMBL5236544, “Furazans in Medicinal Chemistry” (J Med Chem, 2021).

For series [1], the system named is HCT-116. In words: cells. Particulars: Homo sapiens.
A further series deals with LNCaP. Nature of the series: Antiproliferative activity against human LNCaP cells assessed as reduction in cell viability. It counts as functional, cell-based.
The test system of another series is HT-29. In words: cells. Particulars: Homo sapiens.
A short description of series [2]: Dissociation constant, pKa of compound. It counts as physicochemical.
A short description of series [3]: Lipophilicity, log D of compound at pH 7.4. It counts as physicochemical. Particulars: buffer.
The target in series [4] is Prostaglandin G/H synthase 2 (Homo sapiens, UniProt P35354). In words: Inhibition of COX2 (unknown origin).
In series [5] the target is Prostaglandin G/H synthase 1 (Homo sapiens, UniProt P23219). In words: Inhibition of COX1 (unknown origin).
In series [6] the target is Aldo-keto reductase family 1 member C3 (Homo sapiens, UniProt P42330). Nature of the series: Inhibition of AKR1C3 (unknown origin).
The nature of series [7]: Inhibition of HIF (unknown origin). Also noted: species or system Homo sapiens.
The next series is described as follows: physchem. Particulars: octanol/water.
Series [8] can be described thus: Binding affinity to human wild type HIF2alpha assessed as dissociation constant by calorimetry assay.
The species named for series [9] is Rattus norvegicus. Nature of the series: Antihypertensive activity in spontaneously hypertensive rat model assessed as reduction in pulmonary arterial pressure. It counts as functional.
A further series deals with HASMC. Nature of the series: Antiproliferative activity against human HASMC cells assessed as inhibition of cell proliferation measured after 24 hrs by MTT assay. It counts as functional, cell-based.
The species named for series [10] is Rattus norvegicus. In words: Antihypertensive activity in spontaneously hypertensive rat model assessed as reduction in systemic arterial pressure. It counts as functional.
The test system of a further series is NT2. Nature of the series: Inhibition of camptothecin induced apoptosis in human NT2 cells incubated for 5 hrs in presence of camptothecin by ELISA method. It counts as functional, cell-based. Particulars: NT2, 5 h.
In the next series the test system is MDR1. In words: Efflux ratio of permeability in dog MDCK-MDR1 cells. It counts as ADME, cell-based, Canis lupus familiaris.
Series [11] is described as follows: Inhibition of recombinant MAPK p38 (unknown origin) assessed as inhibition of MEF2A phosphorylation incubated for 5 mins by SDS-PAGE method. Also on record: species or system Homo sapiens.
For series [12], the species on record is Rattus norvegicus. Nature of the series: Anti-inflammatory activity against ovalbumin induced lung inflammatory rat model assessed as reduction in eosinophil influx. It counts as functional.
Series [13] addresses 3',5'-cyclic-AMP phosphodiesterase 4D (Homo sapiens, UniProt Q08499). In words: Inhibition of human recombinant PDE4D.
Another series is filed under the species Mus musculus. Nature of the series: Anti-inflammatory activity in LPS-induced inflammatory mouse model assessed as reduction in neutrophil influx. It counts as functional.
Series [14] in a line: Anti-inflammatory activity against human PBMCs assessed as reduction in LPS-induced TNF-alpha release by ELISA analysis. It counts as functional, cell-based. Conditions: PBMC. (In general: An ELISA detects its analyte on a solid surface through an enzyme-linked reagent.)
Series [15] deals with HCT-116. In words: Antiproliferative activity against human HCT-116 cells assessed as reduction in cell viability by MTT assay. It counts as functional, cell-based. Background: Tetrazolium dyes change colour on reduction, which living cells bring about.
The target of series [16] is T1, Amyloid-beta precursor protein (Homo sapiens, UniProt P05067). In words: Inhibition of amyloid beta (unknown origin) aggregation at 5 uM relative to control.
For a further series, the system named is HeLa. Nature of the series: cells. Particulars: Homo sapiens.
The nature of series [17]: Stability in rat assessed as intrinsic clearance. It counts as ADME. Conditions: CLH.
Series [18] deals with T1, Amyloid-beta precursor protein. Nature of the series: Inhibition of amyloid beta (unknown origin) aggregation at 10 uM relative to control.
Series [19] addresses Ribosomal protein S6 kinase alpha-1 (Homo sapiens, UniProt Q15418). In words: Inhibition of RSK1 (unknown origin).
Series [20] in a line: Inhibition of p70S6K (unknown origin). Also on record: species or system Homo sapiens.
Series [21] can be described thus: Inhibition of GSK3 (unknown origin). Also noted: species or system Homo sapiens.
Series [22] is described as follows: Inhibition of human recombinant LDH.
The nature of series [23]: Half life in mouse at 10 mg/kg, po. It counts as ADME, organism-based. Conditions: in vivo.
Series [24] relates to Plasmodium falciparum. In words: Antimalarial activity against Plasmodium falciparum assessed as parasitic reduction at 10 mg/kg of chloroquine relative to control. It counts as functional. Also noted: scale not given: the % may be the effect or the level left.
For series [25], the system named is Plasmodium falciparum. Nature of the series: Antimalarial activity against Plasmodium falciparum assessed as parasitic reduction at 100 mg/kg relative to control. Also noted: scale not given: the % may be the effect or the level left. It counts as functional.
A short description of series [26]: Binding affinity to Plasmodium falciparum LDH assessed as inhibitory constant.
The next series addresses Lactate dehydrogenase (Plasmodium falciparum, UniProt Q0PJ46). In words: Inhibition of recombinant Plasmodium falciparum LDH.
The nature of series [27]: Cmax in mouse at 100 mg/kg, po. It counts as ADME, organism-based. Also noted: dose 100 mg/kg, route po. Particulars: in vivo.
Series [28] relates to Plasmodium falciparum. In words: Antimalarial activity against drug sensitive Plasmodium falciparum 3D7. It counts as functional, organism-based.
Series [29] in a line: Cmax in mouse at 100 mg/kg, ip. It counts as ADME, organism-based. Also on record: dose 100 mg/kg, route ip. Particulars: in vivo.
A short description of series [30]: Half life in mouse at 10 mg/kg, ip. It counts as ADME, organism-based. Particulars: in vivo.
For series [31], the system named is Plasmodium falciparum. In words: Antimalarial activity against drug resistant Plasmodium falciparum KI. It counts as functional, organism-based.
Series [32] can be described thus: Inhibition of ROMK (unknown origin). Also noted: species or system Homo sapiens.
The next series relates to HEL. In words: Antiproliferative activity against human HEL cells assessed as reduction in cell viability measured after 48 hrs by MTT assay. It counts as functional, cell-based.
Series [33] is described as follows: Half life in mouse. Particulars: in vivo. It counts as ADME, organism-based.
For the next series, the system named is Jurkat. In words: Antiproliferative activity against human Jurkat cells assessed as reduction in cell viability measured after 48 hrs by MTT assay. It counts as functional, cell-based.
The next series relates to K562. Nature of the series: Antiproliferative activity against human K562 cells assessed as reduction in cell viability measured after 48 hrs by MTT assay. It counts as functional, cell-based. Conditions: K562, 48 h.
Series [34] concerns the target T1, Amyloid-beta precursor protein. Nature of the series: Inhibition of amyloid beta 42 in human H4 cells. It counts as cell-based.

T1 sequence (P05067 whole entry): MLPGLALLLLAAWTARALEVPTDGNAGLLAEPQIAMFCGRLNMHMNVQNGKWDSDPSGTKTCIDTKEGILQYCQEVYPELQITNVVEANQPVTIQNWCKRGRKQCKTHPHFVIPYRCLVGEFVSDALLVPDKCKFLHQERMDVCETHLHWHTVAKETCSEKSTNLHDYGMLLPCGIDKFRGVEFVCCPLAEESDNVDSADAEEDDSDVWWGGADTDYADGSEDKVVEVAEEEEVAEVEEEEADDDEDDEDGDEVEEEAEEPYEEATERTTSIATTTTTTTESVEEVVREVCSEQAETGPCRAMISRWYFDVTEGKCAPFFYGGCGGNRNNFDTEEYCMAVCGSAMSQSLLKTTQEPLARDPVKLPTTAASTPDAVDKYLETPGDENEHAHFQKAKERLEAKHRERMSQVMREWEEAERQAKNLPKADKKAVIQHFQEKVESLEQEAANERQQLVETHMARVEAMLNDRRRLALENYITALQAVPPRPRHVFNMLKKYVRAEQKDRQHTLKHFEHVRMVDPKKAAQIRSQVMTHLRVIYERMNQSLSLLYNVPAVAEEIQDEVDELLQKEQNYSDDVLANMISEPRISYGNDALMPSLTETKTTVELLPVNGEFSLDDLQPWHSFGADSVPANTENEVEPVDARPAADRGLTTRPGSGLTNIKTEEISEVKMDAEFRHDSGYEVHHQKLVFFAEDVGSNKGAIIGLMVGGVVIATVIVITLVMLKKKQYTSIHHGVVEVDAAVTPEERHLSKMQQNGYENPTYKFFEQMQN
Lactate dehydrogenase, sequence (Q0PJ46 whole entry): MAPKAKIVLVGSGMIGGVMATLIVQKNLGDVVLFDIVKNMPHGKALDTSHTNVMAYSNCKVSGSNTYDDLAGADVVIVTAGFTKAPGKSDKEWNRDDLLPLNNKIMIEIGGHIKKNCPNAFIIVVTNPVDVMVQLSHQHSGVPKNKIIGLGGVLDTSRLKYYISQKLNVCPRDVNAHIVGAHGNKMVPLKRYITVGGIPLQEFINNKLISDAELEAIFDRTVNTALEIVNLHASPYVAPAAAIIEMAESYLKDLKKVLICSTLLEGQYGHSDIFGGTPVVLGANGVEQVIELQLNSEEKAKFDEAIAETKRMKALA
Aldo-keto reductase family 1 member C3, sequence (P42330 whole entry): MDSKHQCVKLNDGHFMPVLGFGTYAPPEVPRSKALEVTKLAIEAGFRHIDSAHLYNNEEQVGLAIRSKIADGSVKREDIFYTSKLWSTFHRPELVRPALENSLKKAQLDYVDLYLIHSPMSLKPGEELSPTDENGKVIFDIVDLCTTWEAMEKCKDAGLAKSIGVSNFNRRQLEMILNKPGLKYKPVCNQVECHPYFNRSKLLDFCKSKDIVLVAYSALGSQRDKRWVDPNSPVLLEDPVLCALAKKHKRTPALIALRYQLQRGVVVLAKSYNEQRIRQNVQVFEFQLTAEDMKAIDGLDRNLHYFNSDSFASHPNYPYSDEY
3',5'-cyclic-AMP phosphodiesterase 4D, sequence (Q08499 whole entry): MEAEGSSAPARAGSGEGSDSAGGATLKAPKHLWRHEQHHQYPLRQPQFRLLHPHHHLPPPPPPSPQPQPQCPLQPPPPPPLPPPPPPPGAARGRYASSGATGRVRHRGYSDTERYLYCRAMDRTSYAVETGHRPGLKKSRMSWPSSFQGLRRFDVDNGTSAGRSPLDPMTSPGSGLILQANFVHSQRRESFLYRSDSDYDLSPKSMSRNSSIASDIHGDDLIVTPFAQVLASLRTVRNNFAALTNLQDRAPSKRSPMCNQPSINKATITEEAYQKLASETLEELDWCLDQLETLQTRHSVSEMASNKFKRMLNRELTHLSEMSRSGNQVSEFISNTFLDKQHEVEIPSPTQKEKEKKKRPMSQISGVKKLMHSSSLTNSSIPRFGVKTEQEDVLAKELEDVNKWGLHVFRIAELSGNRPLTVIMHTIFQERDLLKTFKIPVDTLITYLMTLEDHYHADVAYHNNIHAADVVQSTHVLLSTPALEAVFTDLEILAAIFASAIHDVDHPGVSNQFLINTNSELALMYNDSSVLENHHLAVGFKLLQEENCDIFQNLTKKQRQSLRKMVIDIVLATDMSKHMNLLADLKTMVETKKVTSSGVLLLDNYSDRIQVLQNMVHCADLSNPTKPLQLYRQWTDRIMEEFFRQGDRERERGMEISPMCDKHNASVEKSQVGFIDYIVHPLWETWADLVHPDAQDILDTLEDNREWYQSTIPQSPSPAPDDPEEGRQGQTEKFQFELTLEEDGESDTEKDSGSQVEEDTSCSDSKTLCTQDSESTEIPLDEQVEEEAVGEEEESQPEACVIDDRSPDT
Ribosomal protein S6 kinase alpha-1, sequence (Q15418 whole entry): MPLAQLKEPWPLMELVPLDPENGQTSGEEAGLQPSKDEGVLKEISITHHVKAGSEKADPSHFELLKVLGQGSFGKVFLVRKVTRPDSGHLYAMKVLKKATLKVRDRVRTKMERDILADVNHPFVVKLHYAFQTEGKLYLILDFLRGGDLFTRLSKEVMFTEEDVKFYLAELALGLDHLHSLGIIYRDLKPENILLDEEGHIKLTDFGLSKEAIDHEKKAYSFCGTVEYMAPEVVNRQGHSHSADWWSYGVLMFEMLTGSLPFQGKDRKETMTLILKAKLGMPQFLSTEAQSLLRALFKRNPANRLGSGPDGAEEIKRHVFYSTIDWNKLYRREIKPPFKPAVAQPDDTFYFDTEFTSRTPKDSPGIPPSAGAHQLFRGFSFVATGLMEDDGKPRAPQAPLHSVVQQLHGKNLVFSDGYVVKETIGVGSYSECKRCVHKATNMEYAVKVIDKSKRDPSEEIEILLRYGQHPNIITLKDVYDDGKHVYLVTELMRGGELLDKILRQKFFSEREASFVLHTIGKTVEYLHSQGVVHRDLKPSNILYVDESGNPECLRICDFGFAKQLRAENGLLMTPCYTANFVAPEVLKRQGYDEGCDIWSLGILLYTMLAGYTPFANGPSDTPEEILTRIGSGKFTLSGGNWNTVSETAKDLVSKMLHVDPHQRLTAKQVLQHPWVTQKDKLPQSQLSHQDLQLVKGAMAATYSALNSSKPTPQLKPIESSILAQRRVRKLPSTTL
Prostaglandin G/H synthase 1, sequence (P23219 whole entry): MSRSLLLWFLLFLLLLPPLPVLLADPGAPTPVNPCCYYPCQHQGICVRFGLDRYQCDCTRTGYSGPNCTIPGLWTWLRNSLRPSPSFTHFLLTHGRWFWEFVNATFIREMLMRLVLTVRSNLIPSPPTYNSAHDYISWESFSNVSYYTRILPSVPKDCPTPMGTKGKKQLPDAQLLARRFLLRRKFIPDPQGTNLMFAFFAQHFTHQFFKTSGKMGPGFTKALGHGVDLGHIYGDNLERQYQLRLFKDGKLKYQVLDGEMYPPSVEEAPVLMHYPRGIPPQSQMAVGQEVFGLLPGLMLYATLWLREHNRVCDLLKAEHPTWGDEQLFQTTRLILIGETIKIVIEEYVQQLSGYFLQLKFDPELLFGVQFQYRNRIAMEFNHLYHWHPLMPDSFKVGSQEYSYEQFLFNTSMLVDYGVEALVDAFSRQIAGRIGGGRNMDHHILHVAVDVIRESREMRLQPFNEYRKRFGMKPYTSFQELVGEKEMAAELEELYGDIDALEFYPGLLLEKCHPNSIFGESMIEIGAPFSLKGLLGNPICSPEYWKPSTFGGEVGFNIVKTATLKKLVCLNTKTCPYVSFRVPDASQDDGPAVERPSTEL
Prostaglandin G/H synthase 2, sequence (P35354 whole entry): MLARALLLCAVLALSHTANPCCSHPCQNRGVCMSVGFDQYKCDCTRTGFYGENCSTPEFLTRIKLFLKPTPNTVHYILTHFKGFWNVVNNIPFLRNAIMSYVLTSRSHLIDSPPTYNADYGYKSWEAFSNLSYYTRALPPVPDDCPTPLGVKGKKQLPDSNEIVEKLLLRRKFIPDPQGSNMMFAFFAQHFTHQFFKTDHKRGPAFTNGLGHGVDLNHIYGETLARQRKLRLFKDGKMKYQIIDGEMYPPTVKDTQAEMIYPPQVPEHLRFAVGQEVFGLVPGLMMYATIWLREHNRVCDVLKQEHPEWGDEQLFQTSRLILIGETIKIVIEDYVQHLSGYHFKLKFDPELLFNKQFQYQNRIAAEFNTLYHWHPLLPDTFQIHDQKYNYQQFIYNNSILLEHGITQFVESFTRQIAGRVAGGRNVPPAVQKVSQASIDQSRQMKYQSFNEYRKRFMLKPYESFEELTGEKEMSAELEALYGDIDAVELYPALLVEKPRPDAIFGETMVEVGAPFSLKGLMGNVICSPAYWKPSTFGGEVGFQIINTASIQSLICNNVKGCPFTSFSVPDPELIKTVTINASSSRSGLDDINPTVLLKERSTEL
Description for HT-29: Antiproliferative activity against human HT-29 cells assessed as reduction in cell viability
Description for HeLa: Antiproliferative activity against human HeLa cells assessed as reduction in cell viability
Description for physchem: Lipophilicity, log P of the compound

As a reminder, the EC50 is the concentration giving half of the maximal effect. For `COc1ccc2c(c1)c(CC(=O)O)c(C)n2C(=O)c1ccc(Cl)cc1` [INDOMETHACIN], the EC50 in the series with HCT-116 [1] was determined as 137000 nM; in the series with LNCaP, 238000 nM; in the series with HT-29, 313000 nM.

What is called pKa is the pH at which an ionisable group is half protonated. Broadly, the logD is lipophilicity at a set pH, counting ionised and neutral species. Usually IC50 stands for the midpoint of a concentration-inhibition curve. Turning to `COc1ccc2c(c1)c(Cc1nonc1O)c(C)n2C(=O)c1ccccc1`, in series [2], the pKa is 4.09. In series [3], this molecule returned a logD of 1.8. In addition, the results for the IC50 in series [4], in series [5] and in [6] were greater than 100000 nM, greater than 100000 nM and 300 nM, respectively. Besides, the EC50 in the series on HCT-116 [1] is 78900 nM; with LNCaP it was 141000 nM; in the series with HT-29, 135000 nM.

In general, logP refers to a log measure of how a compound divides between an organic and an aqueous phase. What is called Kd is the concentration at which binding is half-saturated. `Fc1cc(Br)cc([C@@H]2C[C@H](c3cccc(Br)c3)n3nnnc3N2)c1` had an IC50 in series [7] of 43000 nM. Also, in “physchem”, the logP was found to be 4.4. The Kd in [8] was found to be 23 nM.

As for `O=c1[nH]ccc2cc(OC3CCNCC3)ccc12` [SAR-407899 FREE BASE], the Activity in the series filed under Rattus norvegicus [9] is listed as -6 mmHg; in the series filed under Rattus norvegicus [10], -19 mmHg. In the series on HASMC, the IC50 is 122 nM.

As for `CC(=O)N[C@@H](CC(=O)O)C(=O)N[C@@H](CCC(=O)O)C(=O)N[C@H](C(=O)N[C@H](C=O)CC(=O)O)C(C)C`, the EC50 in the series with NT2 is greater than 100000 nM.

Broadly, the efflux ratio is a quotient of directional permeabilities that is used to spot active efflux. Turning to `COc1cc2c(cc1OC)CN(Cc1ccc(-c3ccc(OCCOc4nonc4OC)cc3)cc1)CC2`, the efflux ratio in the series on MDR1 is 0.6.

For `Cc1ccc(Cl)cc1Nc1cc(Cl)c2nonc2c1[N+](=O)[O-]`, the IC50 in series [11] was found to be 10000 nM.

A word on the ED50: it is the dose that gives a 50% effect, or the effect in half of the subjects. For the molecule `O=C(O)[C@H]1CC[C@H](c2cc3cccnc3c(-c3cccc(F)c3)n2)CC1`, the ED50 in the series filed under Rattus norvegicus [12] turned out to be 0.0034 µmol/kg; in the series listed under Mus musculus, 0.032 µmol/kg. The IC50 in series [13] came to 41 nM. Also, in series [14], the EC50 is 126 nM.

For the molecule `O=C(Nc1nonc1-c1ccc(Cl)cc1)c1ccc(C(F)(F)F)cc1`, in the series with HCT-116 [15], the EC50 came out at 1300 nM.

The inhibition is the share of the control response that was lost under treatment. In series [16], `OC(c1cccc(-c2cc(NCc3ccccc3)c3nonc3c2)c1)C(F)(F)F` (stereo not given) yielded an inhibition of 57.1%.

In general, CLint scaled refers to the rate of metabolic loss divided by the concentration. Consider `Nc1nonc1C(=NO)Nc1ccc(F)c(Cl)c1`, for which, in the series on HeLa, a half-maximal effect (EC50) was put at 19 nM. Moreover, in series [17], the CLint scaled was greater than 36.7 mL/min/kg.

Consider `OC(c1cccc(-c2cc(N3CCCC3)c3nonc3c2)c1)C(F)(F)F` (stereo not given), for which the inhibition in series [18] is 88.9%.

As to `CCn1c(-c2nonc2N)nc2cnccc21`, the IC50 in [19] turned out to be 24 nM; in series [20], 70 nM; in series [21] it was 33 nM.

In general, half-life refers to the time in which the quantity being followed falls by half. As usually defined, the Ki is the equilibrium dissociation constant of an inhibitor or competing ligand from its target. One may read the Cmax as the maximum level reached in the sampled fluid or tissue. For orientation: EC90 means the concentration needed for an effect of 90%. As to `O=C(O)c1conc1O`, the values for the IC50 (in series [22]; at Lactate dehydrogenase) were 54000 nM and 1100 nM, respectively. In addition, the half-life in series [23] is 1.6 h; in series [30], 1.1 h. Also, the values for the Activity in the series with Plasmodium falciparum [24] and in the series on Plasmodium falciparum [25] were 100% and 30%, respectively. Besides, the Ki in series [26] is 470 nM. In addition, the Cmax was 153 µM in series [27] and 158 µM in [29]. Moreover, the EC50 in the series on Plasmodium falciparum [28] was determined as 74400 nM. The same molecule came in with an EC90 in the series with Plasmodium falciparum [28] greater than 200000 nM.

On to `O=C(O)c1nsnc1O`, for which the IC50 in series [22] turned out to be 10300 nM; on Lactate dehydrogenase it was 140 nM. Also, the EC50 with Plasmodium falciparum [31] was determined as 144000 nM; in the series with Plasmodium falciparum [28] it was 75300 nM. The Ki in series [26] was found to be 290 nM. This molecule gave an EC90 in the series on Plasmodium falciparum [28] greater than 170000 nM.

`N#Cc1ccc(CCN2CCN(CCc3ccc4nonc4c3)CC2)cc1` yielded an IC50 in [32] of 1900 nM.

For the molecule `CC1(C)CC[C@]2(C(=O)O)CC[C@]3(C)C(=CC[C@@H]4[C@@]5(C)CC[C@H](O)C(C)(C)[C@@H]5CC[C@]43C)[C@@H]2C1` [OLEANOLIC_ACID], the EC50 is greater than 1000 nM with HEL, greater than 1000 nM in the series on Jurkat and greater than 100000 nM in the series on K562. In [33], this molecule had a half-life of 0.7 h.

On to `O=C(O)[C@H](CC1CCC1)c1cc(Cl)c(OCC(F)(F)F)c(-c2ccc(C(F)(F)F)cc2)c1`, for which, in series [34], the half-maximal effective concentration (EC50) was 70 nM.
